Assay results: publication PMC11189555, “Aryl amino acetamides prevent Plasmodium falciparum ring development via targeting the lipid-transfer protein PfSTART1” (Nature Communications, 2024)

Tested on: PopD C6 M-833 resistant clone (PfSTART1 N309K)
Experiment: Growth inhibition assay (72 h, LDH activity)
Assay type: cell-based, Plasmodium falciparum
Procedure: The drug was then removed, and parasites were allowed to recover. Another cycle of drug treatment (3 μM M-833) was then resumed. The resistant lines were cloned out by limiting dilution (diluting the culture into a 96-well plate to achieve an average of ~0.3 parasites per well), prior to growth inhibition assays and genomic DNA (gDNA) extraction (DNeasy Blood and Tissue kit (Qiagen)[18].
Parasite growth assays with inhibitory compounds were performed as per[11] and are fully described in the Supplementary Information.
Molecular biology and transfection of P. falciparum: CRISPR method.
The full 5’ homology region of pfstart1 (either WT, N309K or N330K) was amplified from pPfSTART1-HA-2A-Neo-glmS with the same 5’ BglII primer and a new 3’ primer that replaced with PstI with SpeI and introduced a stop codon. The PCR product was then digested with BglII and SpeI and inserted into similarly digested p1.2 parasite vector2. The p1.2 vector had previously been inserted with a homology region amplified from the 3’ end of the pfstart1 gene (3’HB) to form a second homology block for double recombination. The primers used to amplify 3’HB are listed primers listed in […]
60 μg of p1.2-PfSTART1(WT/N309K/N330K) plasmid was linearised with KasI, precipitated in 3 M sodium acetate and ethanol (70% final concentration) overnight at -20°C. The DNA pellet was washed in cold 70% ethanol and resuspended in cytomix 3.
50 μ M of crRNA ( Table S 2) and 50 μM of tracRNA (Integrated DNA Technologies) were allowed to form a duplex (5 min at 95°C), and Cas9 enzyme (Integrated DNA Technologies) was added, and incubated for 20 min at room temperature 4. This crRNA -tracRNA -Cas9 mix was added to each DNA preparation and transfected to 3D7 ring parasites using the Bio -Rad Gene Pulser at 310 V and 950 μF.
Parasites containing the transfected DNA were selected using 2.5 nM WR99210 (Jacobus). Parasites lines were cloned using limiting dilution. Correct integration was tested by PCR (using primer START_5’UTR.F and START_Int.R1 , Table S 2), and sequencing was done using the primers START_3F and START_Int.R2 (Table S 2).
Growth inhibition assays. Synchronised ring-stage parasites (0.3-0.6% parasitemia, 2% haematocrit) were grown for 72 h in a serial-dilution of the compound under […]
and compound 4. Note that M-833 was first purchased from MolPort (MolPort -002-267-916) then made in-house at WEHI: the differences observed in EC50s across experiments are attributed to the different batches of M -833. For some experiments, 0, 0.25 or 2.5 mM of glucosamine (GlcN) was also added. Experiments were set up in technical duplicates or triplicates. Following a freeze -thaw cycle, lactate dehydrogenase (LDH) activity was assessed as an indicator of parasite growt h 5. 30 μL of parasite culture was incubated for 30 min in the dark with 75 μL Malstat mixture (0.1 M Tris pH 9.0, 20 g/L lactic acid, pH 7.5, 0.2% Triton-X100, 0.5 g/L acetylpyridine adenine dinucleotide (APAD, Sigma), 200 μg/mL nitroblue tetrazolium (NBT; Sigma), 1 μg/mL phenozine ethosulfate (PES; Sigma)). Absorbance was then measured at 650 nm, transformed using the formula below, plotted against the logarithm of the concentrations, and a non-linear regression (log(inhibitor) vs. response, variable slope) was calculated using GraphPad Prism to assess the half-inhibitory […]
Growth inhibition % = (1 − average(sample)− average(uRBC)) ∗ 100 […]
The DMSO samples were also used to assess growth of parasite in the presence of 0.25 and 2.5 mM GlcN (normalised by DMSO in 0 mM GlcN).
Egress, invasion & recovery assay. To measure egress, invasion and follow up recovery in the presence of different compounds, we adapted the method developed in6, using Hyp1-Nluc parasites7. These parasites episomally express the exported PEXEL protein Hyp1 (PF3D7_0113300) tagged with a NanoLuc luciferase (NLuc) and were selected with 2.5 nM WR99210 (Jacobus). Highly synchronised schizonts were […]

With `Cc1cc(Cl)c(S(=O)(=O)N2CCCC2)cc1OCC(=O)NC1CCCCC1` [M-833] the “Normalised to DMSO” value (M-833 0.0390625 uM, Pop D-C6 replicate 1) was 106.597, the “Normalised to DMSO” value (M-833 0.0390625 uM, Pop D-C6 replicate 3) was 109.19 and the “Normalised to DMSO” value (M-833 0.078125 uM, Pop D-C6 replicate 1) was 104.398. The “Normalised to DMSO” value (M-833 0.078125 uM, Pop D-C6 replicate 3) was 106.818, the “Normalised to DMSO” value (M-833 0.15625 uM, Pop D-C6 replicate 1) was 106.528 and the “Normalised to DMSO” value (M-833 0.15625 uM, Pop D-C6 replicate 3) was 112.747. For the same compound, the “Normalised to DMSO” value (M-833 0.3125 uM, Pop D-C6 replicate 1) was 101.389, the “Normalised to DMSO” value (M-833 0.3125 uM, Pop D-C6 replicate 3) was 96.5909 and the “Normalised to DMSO” value (M-833 0.625 uM, Pop D-C6 replicate 1) was 99.6991. For the same compound, the “Normalised to DMSO” value (M-833 0.625 uM, Pop D-C6 replicate 3) was 97.6285, the “Normalised to DMSO” value (M-833 1.25 uM, Pop D-C6 replicate 1) was 88.1713 and the “Normalised to DMSO” value (M-833 1.25 uM, Pop D-C6 replicate 3) was 89.9209. The “Normalised to DMSO” value (M-833 2.5 uM, Pop D-C6 replicate 1) was 68.7963, the “Normalised to DMSO” value (M-833 2.5 uM, Pop D-C6 replicate 3) was 69.4664 and the “Normalised to DMSO” value (M-833 5 uM, Pop D-C6 replicate 1) was 41.5972. For the same compound, the “Normalised to DMSO” value (M-833 5 uM, Pop D-C6 replicate 3) was 40.2668, the “Normalised to DMSO” value (M-833 10 uM, Pop D-C6 replicate 1) was 22.7778 and the “Normalised to DMSO” value (M-833 10 uM, Pop D-C6 replicate 3) was 32.2628. It also gave an inhibition at 0.0390625 µM (Plasmodium falciparum, M-833 0.0390625 uM, Pop D-C6 replicate 1) of -6.6%, an inhibition at 0.0390625 µM (Plasmodium falciparum, M-833 0.0390625 uM, Pop D-C6 replicate 3) of -9.19% and an inhibition at 0.078125 µM (Plasmodium falciparum, M-833 0.078125 uM, Pop D-C6 replicate 1) of -4.4%. For the same compound, the inhibition at 0.078125 µM (Plasmodium falciparum, M-833 0.078125 uM, Pop D-C6 replicate 3) was -6.82%, the inhibition at 0.15625 µM (Plasmodium falciparum, M-833 0.15625 uM, Pop D-C6 replicate 1) was -6.53% and the inhibition at 0.15625 µM (Plasmodium falciparum, M-833 0.15625 uM, Pop D-C6 replicate 3) was -12.7%. For the same compound, the inhibition at 0.3125 µM (Plasmodium falciparum, M-833 0.3125 uM, Pop D-C6 replicate 1) was -1.39%, the inhibition at 0.3125 µM (Plasmodium falciparum, M-833 0.3125 uM, Pop D-C6 replicate 3) was 3.41% and the inhibition at 0.625 µM (Plasmodium falciparum, M-833 0.625 uM, Pop D-C6 replicate 1) was 0.301%. The inhibition at 0.625 µM (Plasmodium falciparum, M-833 0.625 uM, Pop D-C6 replicate 3) was 2.37%, the inhibition at 1.25 µM (Plasmodium falciparum, M-833 1.25 uM, Pop D-C6 replicate 1) was 11.8% and the inhibition at 1.25 µM (Plasmodium falciparum, M-833 1.25 uM, Pop D-C6 replicate 3) was 10.1%. For the same compound, the inhibition at 2.5 µM (Plasmodium falciparum, M-833 2.5 uM, Pop D-C6 replicate 1) was 31.2%, the inhibition at 2.5 µM (Plasmodium falciparum, M-833 2.5 uM, Pop D-C6 replicate 3) was 30.5% and the inhibition at 5 µM (Plasmodium falciparum, M-833 5 uM, Pop D-C6 replicate 1) was 58.4%. The inhibition at 5 µM (Plasmodium falciparum, M-833 5 uM, Pop D-C6 replicate 3) was 59.7%, the inhibition at 10 µM (Plasmodium falciparum, M-833 10 uM, Pop D-C6 replicate 1) was 77.2% and the inhibition at 10 µM (Plasmodium falciparum, M-833 10 uM, Pop D-C6 replicate 3) was 67.7%. For the same compound, the inhibition at 0.0390625 µM (Plasmodium falciparum, Pop D-C6 replicate 1, M-833 0.0390625 uM) was -0.105%, the inhibition at 0.078125 µM (Plasmodium falciparum, Pop D-C6 replicate 1, M-833 0.078125 uM) was -0.157% and the inhibition at 0.15625 µM (Plasmodium falciparum, Pop D-C6 replicate 1, M-833 0.15625 uM) was 1.36%. It also gave an inhibition at 0.3125 µM (Plasmodium falciparum, Pop D-C6 replicate 1, M-833 0.3125 uM) of 4.07%, an inhibition at 0.625 µM (Plasmodium falciparum, Pop D-C6 replicate 1, M-833 0.625 uM) of 7.36% and an inhibition at 1.25 µM (Plasmodium falciparum, Pop D-C6 replicate 1, M-833 1.25 uM) of 9.35%. It also gave an inhibition at 2.5 µM (Plasmodium falciparum, Pop D-C6 replicate 1, M-833 2.5 uM) of 19.4%, an inhibition at 5 µM (Plasmodium falciparum, Pop D-C6 replicate 1, M-833 5 uM) of 34.9% and an inhibition at 10 µM (Plasmodium falciparum, Pop D-C6 replicate 1, M-833 10 uM) of 62%. For the same compound, the EC50 (Plasmodium falciparum, read-out: EC50 (95% confidence interval)) was 4.19 µM, the “Normalised to DMSO” value (Pop D-C6 replicate 1, M-833 0.0390625 uM) was 100.105 and the “Normalised to DMSO” value (Pop D-C6 replicate 1, M-833 0.078125 uM) was 100.157. The “Normalised to DMSO” value (Pop D-C6 replicate 1, M-833 0.15625 uM) was 98.6386, the “Normalised to DMSO” value (Pop D-C6 replicate 1, M-833 0.3125 uM) was 95.9333 and the “Normalised to DMSO” value (Pop D-C6 replicate 1, M-833 0.625 uM) was 92.6433. The “Normalised to DMSO” value (Pop D-C6 replicate 1, M-833 1.25 uM) was 90.6536, the “Normalised to DMSO” value (Pop D-C6 replicate 1, M-833 2.5 uM) was 80.5829 and the “Normalised to DMSO” value (Pop D-C6 replicate 1, M-833 5 uM) was 65.0842. For the same compound, the “Normalised to DMSO” value (Pop D-C6 replicate 1, M-833 10 uM) was 37.9963.
